Columns and labels:
Type in all cases: functional
Aleurodicus dispersus [1] = experiment: Insecticidal activity against third-instar nymph stage of Aleurodicus dispersus in guava plant leaves assessed as mortality at 8 mg/l measured after 6 days under laboratory conditions (reference value: 3%); details: 144 h
Aleurodicus dispersus [2] = experiment: Insecticidal activity against third-instar nymph stage of Aleurodicus dispersus in guava plant leaves assessed as mortality at 4 mg/l measured after 6 days under laboratory conditions (reference value: 3%); details: 144 h
Aleurodicus dispersus [3] = experiment: Insecticidal activity against third-instar nymph stage of Aleurodicus dispersus in guava plant leaves assessed as mortality at 2 mg/l measured after 6 days under laboratory conditions (reference value: 3%); details: 144 h
Aleurodicus dispersus [4] = experiment: Insecticidal activity against third-instar nymph stage of Aleurodicus dispersus in guava leaves assessed as mortality at 10 mg/l treated for 15 s measured at 27 +/-2 degC after 24 hr (reference value: 2%)
Aleurodicus dispersus [5] = experiment: Insecticidal activity against third-instar nymph stage of Aleurodicus dispersus in guava leaves assessed as mortality at 5 mg/l treated for 15 s measured at 27 +/-2 degC after 24 hr (reference value: 2%)
Aleurodicus dispersus [6] = experiment: Insecticidal activity against third-instar nymph stage of Aleurodicus dispersus in guava leaves assessed as mortality at 2.5 mg/l treated for 15 s measured at 27 +/-2 degC after 24 hr (reference value: 2%)
Aleurodicus dispersus [7] = experiment: Insecticidal activity against third-instar nymph stage of Aleurodicus dispersus in guava plant leaves assessed as mortality at 4 mg/l measured after 9 days under laboratory conditions (reference value: 3%); details: 216 h
Aleurodicus dispersus [8] = experiment: Insecticidal activity against third-instar nymph stage of Aleurodicus dispersus in guava plant leaves assessed as mortality at 2 mg/l measured after 9 days under laboratory conditions (reference value: 3%); details: 216 h
Aleurodicus dispersus [9] = experiment: Insecticidal activity against third-instar nymph stage of Aleurodicus dispersus in guava plant leaves assessed as mortality at 8 mg/l measured after 9 days in presence of 10^8 Beauveria bassiana conidial suspension under laboratory conditions (reference value: 45.7 +/-3.18%); details: 216 h
Aleurodicus dispersus [10] = experiment: Insecticidal activity against third-instar nymph stage of Aleurodicus dispersus in guava plant leaves assessed as mortality at 4 mg/l measured after 9 days in presence of 10^8 Beauveria bassiana conidial suspension under laboratory conditions (reference value: 45.7 +/-3.18%); details: 216 h
Aleurodicus dispersus [11] = experiment: Insecticidal activity against third-instar nymph stage of Aleurodicus dispersus in guava plant leaves assessed as mortality at 2 mg/l measured after 9 days in presence of 10^8 Beauveria bassiana conidial suspension under laboratory conditions (reference value: 45.7 +/-3.18%); details: 216 h
Aleurodicus dispersus [12] = experiment: Insecticidal activity against third-instar nymph stage of Aleurodicus dispersus in guava plant leaves assessed as mortality at 8 mg/L applied via hand sprayer measured after 9 days under field conditions (reference value: 4%); details: 216 h
Aleurodicus dispersus [13] = experiment: Insecticidal activity against third-instar nymph stage of Aleurodicus dispersus in guava plant leaves assessed as mortality at 4 mg/L applied via hand sprayer measured after 9 days under field conditions (reference value: 4%); details: 216 h
Aleurodicus dispersus [14] = experiment: Insecticidal activity against third-instar nymph stage of Aleurodicus dispersus in guava plant leaves assessed as mortality at 2 mg/L applied via hand sprayer measured after 9 days under field conditions (reference value: 4%); details: 216 h
Aleurodicus dispersus [15] = experiment: Insecticidal activity against third-instar nymph stage of Aleurodicus dispersus in guava plant leaves assessed as mortality at 8 mg/L applied via hand sprayer measured after 9 days in presence of 10^8 Beauveria bassiana conidial suspension under field conditions (reference value: 42.3 +/-3.58%); details: 216 h
Aleurodicus dispersus [16] = experiment: Insecticidal activity against third-instar nymph stage of Aleurodicus dispersus in guava plant leaves assessed as mortality at 4 mg/L applied via hand sprayer measured after 9 days in presence of 10^8 Beauveria bassiana conidial suspension under field conditions (reference value: 42.3 +/-3.58%); details: 216 h
Aleurodicus dispersus [17] = experiment: Insecticidal activity against third-instar nymph stage of Aleurodicus dispersus in guava plant leaves assessed as mortality at 2 mg/L applied via hand sprayer measured after 9 days in presence of 10^8 Beauveria bassiana conidial suspension under field conditions (reference value: 42.3 +/-3.58%); details: 216 h
Aleurodicus dispersus [18] = experiment: Insecticidal activity against third-instar nymph stage of Aleurodicus dispersus in guava plant leaves assessed as mortality at 8 mg/L applied via hand sprayer measured after 6 days under field conditions (reference value: 3.5%); details: 144 h
Aleurodicus dispersus [19] = experiment: Insecticidal activity against third-instar nymph stage of Aleurodicus dispersus in guava plant leaves assessed as mortality at 4 mg/L applied via hand sprayer measured after 6 days under field conditions (reference value: 3.5%); details: 144 h
Aleurodicus dispersus [20] = experiment: Insecticidal activity against third-instar nymph stage of Aleurodicus dispersus in guava plant leaves assessed as mortality at 2 mg/L applied via hand sprayer measured after 6 days under field conditions (reference value: 3.5%); details: 144 h
Aleurodicus dispersus [21] = experiment: Insecticidal activity against third-instar nymph stage of Aleurodicus dispersus in guava plant leaves assessed as mortality at 8 mg/L applied via hand sprayer measured after 6 days in presence of 10^8 Beauveria bassiana conidial suspension under field conditions (reference value: 26.9 +/-3.04%); details: 144 h
Aleurodicus dispersus [22] = experiment: Insecticidal activity against third-instar nymph stage of Aleurodicus dispersus in guava plant leaves assessed as mortality at 4 mg/L applied via hand sprayer measured after 6 days in presence of 10^8 Beauveria bassiana conidial suspension under field conditions (reference value: 26.9 +/-3.04%); details: 144 h
Aleurodicus dispersus [23] = experiment: Insecticidal activity against third-instar nymph stage of Aleurodicus dispersus in guava plant leaves assessed as mortality at 2 mg/L applied via hand sprayer measured after 6 days in presence of 10^8 Beauveria bassiana conidial suspension under field conditions (reference value: 26.9 +/-3.04%); details: 144 h
Aleurodicus dispersus [24] = experiment: Insecticidal activity against third-instar nymph stage of Aleurodicus dispersus in guava plant leaves assessed as mortality at 8 mg/L applied via hand sprayer measured after 3 days under field conditions (reference value: 3%); details: 72 h
Aleurodicus dispersus [25] = experiment: Insecticidal activity against third-instar nymph stage of Aleurodicus dispersus in guava plant leaves assessed as mortality at 4 mg/L applied via hand sprayer measured after 3 days under field conditions (reference value: 3%); details: 72 h
Aleurodicus dispersus [26] = experiment: Insecticidal activity against third-instar nymph stage of Aleurodicus dispersus in guava plant leaves assessed as mortality at 2 mg/L applied via hand sprayer measured after 3 days under field conditions (reference value: 3%); details: 72 h
Aleurodicus dispersus [27] = experiment: Insecticidal activity against third-instar nymph stage of Aleurodicus dispersus in guava plant leaves assessed as mortality at 8 mg/L applied via hand sprayer measured after 3 days in presence of 10^8 Beauveria bassiana conidial suspension under field conditions (reference value: 22.2 +/-3.15%); details: 72 h
Aleurodicus dispersus [28] = experiment: Insecticidal activity against third-instar nymph stage of Aleurodicus dispersus in guava plant leaves assessed as mortality at 4 mg/L applied via hand sprayer measured after 3 days in presence of 10^8 Beauveria bassiana conidial suspension under field conditions (reference value: 22.2 +/-3.15%); details: 72 h
Aleurodicus dispersus [29] = experiment: Insecticidal activity against third-instar nymph stage of Aleurodicus dispersus in guava plant leaves assessed as mortality at 2 mg/L applied via hand sprayer measured after 3 days in presence of 10^8 Beauveria bassiana conidial suspension under field conditions (reference value: 22.2 +/-3.15%); details: 72 h
Aleurodicus dispersus [30] = experiment: Insecticidal activity against third-instar nymph stage of Aleurodicus dispersus in guava plant leaves assessed as mortality at 8 mg/l measured after 9 days under laboratory conditions (reference value: 3%); details: 216 h

## CC1(C)[C@H](C=C(Cl)Cl)[C@H]1C(=O)O[C@@H](C#N)c1cccc(Oc2ccccc2)c1 [BETA-CYPERMETHRIN]
Aleurodicus dispersus [1]
  mortality at 8 µg/mL: 39.3%
Aleurodicus dispersus [2]
  mortality at 4 µg/mL: 34.1%
Aleurodicus dispersus [3]
  mortality at 2 µg/mL: 28.7%
Aleurodicus dispersus [4]
  mortality at 10 µg/mL: 23.1%
Aleurodicus dispersus [5]
  mortality at 5 µg/mL: 16.2%
Aleurodicus dispersus [6]
  mortality at 2.5 µg/mL: 9.1%
Aleurodicus dispersus [7]
  mortality at 4 µg/mL: 34.1%
Aleurodicus dispersus [8]
  mortality at 2 µg/mL: 28.7%
Aleurodicus dispersus [9]
  mortality at 8 µg/mL: 80.6%
Aleurodicus dispersus [10]
  mortality at 4 µg/mL: 77.6%
Aleurodicus dispersus [11]
  mortality at 2 µg/mL: 75.3%
Aleurodicus dispersus [12]
  mortality at 8 µg/mL: 29.4%
Aleurodicus dispersus [13]
  mortality at 4 µg/mL: 26.7%
Aleurodicus dispersus [14]
  mortality at 2 µg/mL: 20.9%
Aleurodicus dispersus [15]
  mortality at 8 µg/mL: 63.7%
Aleurodicus dispersus [16]
  mortality at 4 µg/mL: 62.4%
Aleurodicus dispersus [17]
  mortality at 2 µg/mL: 54.2%
Aleurodicus dispersus [18]
  mortality at 8 µg/mL: 29.4%
Aleurodicus dispersus [19]
  mortality at 4 µg/mL: 26.7%
Aleurodicus dispersus [20]
  mortality at 2 µg/mL: 20.9%
Aleurodicus dispersus [21]
  mortality at 8 µg/mL: 62.2%
Aleurodicus dispersus [22]
  mortality at 4 µg/mL: 60.5%
Aleurodicus dispersus [23]
  mortality at 2 µg/mL: 50.9%
Aleurodicus dispersus [24]
  mortality at 8 µg/mL: 29.4%
Aleurodicus dispersus [25]
  mortality at 4 µg/mL: 26.7%
Aleurodicus dispersus [26]
  mortality at 2 µg/mL: 20.9%
Aleurodicus dispersus [27]
  mortality at 8 µg/mL: 42.3%
Aleurodicus dispersus [28]
  mortality at 4 µg/mL: 37.6%
Aleurodicus dispersus [29]
  mortality at 2 µg/mL: 32.3%
Aleurodicus dispersus [30]
  mortality at 8 µg/mL: 39.3%

From ChEMBL document CHEMBL3046835, “Insecticidal activity influence of beta-cypermethrin on the pathogenicity of Beauveria bassiana against Aleurodicus disperses” (Crop Prot, 2013)
